Data reported in patent US9556183B2, “Substituted pyrazolylpyrazole derivative and use of same as herbicide” (KYOYU AGRI CO., LTD., priority 2013, dated 2017).

Columns and labels:
Chenopodium album [1] = assay: Farming soil treatment test; assay type: in vivo; settings: soil surface spray prior to weed growth, 30 days
Experimental: (§1) Evaluation of herbicidal efficacy was carried out by comparing growth inhibition rate (%) with an untreated group, while evaluation of phytotoxicity was carried out by comparing growth inhibition rate (%) with the state of a complete eradication group, and were evaluated at 11 levels indicated below. [table] Field soil was filled into a 1/6000 are pot followed by seeding with Digitaria ciliaris, Chenopodium album and Amaranthus retroflexus and covering with soil. Wettable powder of compounds of formula (I) shown in Table 1 prepared in compliance with the preparation examples were diluted with water to the prescribed amount of chemical and uniformly sprayed onto each soil surface layer using 10 liters of sprayed water per are prior to weed growth following seeding. After treating for 30 days in a glass greenhouse at an average atmospheric temperature of 30° C., the herbicidal efficacy thereof was investigated. Evaluation of herbicidal efficacy was carried out in the same manner as the above-mentioned Test Example 1.

Amaranthus retroflexus [2] = assay: Farming soil treatment test; assay type: in vivo; settings: soil surface spray prior to weed growth, 30 days
Experimental: as §1

Digitaria ciliaris [3] = assay: Farming soil treatment test; assay type: in vivo; settings: soil surface spray prior to weed growth, 30 days
Experimental: as §1

Echinochloa crus-galli = assay: Paddy herbicidal activity test; assay type: in vivo; settings: irrigated paddy pot, treated at 3.5 leaf stage of Echinochloa crus-galli, 30 days
Summary of the method: (§2)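 Flooded paddy-soil pots (3 cm water) sown with weeds; rice at 2.0 leaf stage transplanted when Echinochloa reached 3.5 leaf stage, then diluted wettable powder dropped into water at prescribed rate per are. After 30 days in greenhouse (mean 30° C), growth inhibition vs untreated (efficacy) or vs complete kill (phytotoxicity) scored on 11 levels.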

Scirpus juncoides = assay: Paddy herbicidal activity test; assay type: in vivo; settings: irrigated paddy pot, 30 days
Summary of the method: as §2

Monochoria vaginalis = assay: Paddy herbicidal activity test; assay type: in vivo; settings: irrigated paddy pot, 30 days
Summary of the method: as §2

Chenopodium album [4] = assay: Weed foliar treatment test; assay type: in vivo; settings: foliar spray, 3 weeks
Experimental: (§3) Evaluation of herbicidal efficacy was carried out by comparing growth inhibition rate (%) with an untreated group, while evaluation of phytotoxicity was carried out by comparing growth inhibition rate (%) with the state of a complete eradication group, and were evaluated at 11 levels indicated below. [table] Soil was filled into a 1/6000 are pot followed by seeding with Digitaria ciliaris, Chenopodium album and Amaranthus retroflexus, covering with soil, and cultivating in a glass greenhouse at an average atmospheric temperature of 25° C. Wettable powder of Target Compound (I) shown in Table 1 prepared in compliance with the preparation examples were diluted with water to the prescribed amount of chemical and uniformly sprayed onto the weeds using 15 liters of sprayed water per are when Digitaria ciliaris had grown to the 1.0 to 2.0 leaf stage. After treating for 3 weeks in a glass greenhouse at an average atmospheric temperature of 25° C., the herbicidal efficacy thereof was investigated, Evaluation of herbicidal efficacy was carried out in the same manner as the above-mentioned Test Example 1.

Amaranthus retroflexus [5] = assay: Weed foliar treatment test; assay type: in vivo; settings: foliar spray, 3 weeks
Experimental: as §3

Digitaria ciliaris [6] = assay: Weed foliar treatment test; assay type: in vivo; settings: foliar spray at 1.0 to 2.0 leaf stage of Digitaria ciliaris, 3 weeks
Experimental: as §3

Rice plants = assay: Paddy herbicidal activity test, phytotoxicity to transplanted rice; assay type: in vivo; settings: rice transplanted at 2.0 leaf stage, 30 days
Summary of the method: as §2

melting point [°C] | SMILES | herbicidal efficacy (growth inhibition rate level) Chenopodium album (Chenopodium album [1]; 5g a.i./10a) | herbicidal efficacy (growth inhibition rate level) Chenopodium album (Chenopodium album [1]; 10g a.i./10a) | herbicidal efficacy (growth inhibition rate level) Amaranthus retroflexus (Amaranthus retroflexus [2]; 5g a.i./10a) | herbicidal efficacy (growth inhibition rate level) Amaranthus retroflexus (Amaranthus retroflexus [2]; 10g a.i./10a) | herbicidal efficacy (growth inhibition rate level) Digitaria ciliaris (Digitaria ciliaris [3]; 5g a.i./10a) | herbicidal efficacy (growth inhibition rate level) Digitaria ciliaris (Digitaria ciliaris [3]; 10g a.i./10a) | herbicidal efficacy (growth inhibition rate level) Echinochloa crus-galli (Echinochloa crus-galli; 1g a.i./10a) | herbicidal efficacy (growth inhibition rate level) Echinochloa crus-galli (Echinochloa crus-galli; 5g a.i./10a) | herbicidal efficacy (growth inhibition rate level) Scirpus juncoides (Scirpus juncoides; 1g a.i./10a) | herbicidal efficacy (growth inhibition rate level) Scirpus juncoides (Scirpus juncoides; 5g a.i./10a) | herbicidal efficacy (growth inhibition rate level) Monochoria vaginalis (Monochoria vaginalis; 1g a.i./10a) | herbicidal efficacy (growth inhibition rate level) Monochoria vaginalis (Monochoria vaginalis; 5g a.i./10a) | herbicidal efficacy (growth inhibition rate level) Chenopodium album (Chenopodium album [4]; 5g a.i./10a) | herbicidal efficacy (growth inhibition rate level) Chenopodium album (Chenopodium album [4]; 10g a.i./10a) | herbicidal efficacy (growth inhibition rate level) Amaranthus retroflexus (Amaranthus retroflexus [5]; 5g a.i./10a) | herbicidal efficacy (growth inhibition rate level) Amaranthus retroflexus (Amaranthus retroflexus [5]; 10g a.i./10a) | herbicidal efficacy (growth inhibition rate level) Digitaria ciliaris (Digitaria ciliaris [6]; 5g a.i./10a) | herbicidal efficacy (growth inhibition rate level) Digitaria ciliaris (Digitaria ciliaris [6]; 10g a.i./10a) | phytotoxicity (growth inhibition rate level) Rice plants (Rice plants; 1g a.i./10a) | further results
165 to 166 | N#Cc1cnn(-c2nn3c(c2Cl)CCCC3)c1NCC1CC1 [Compound 1, 1-(3-chloro-4,5,6,7-tetrahydropyrazolo[1,5-a]pyridin-2-yl)-5-(cyclopropylmethylamino)pyrazole-4-carbonitrile] | 10 (10: 100%) | 10 (10: 100%) | 10 (10: 100%) | 10 (10: 100%) | 10 (10: 100%) | 10 (10: 100%) | 9 (9: 90% to less than 100%) | 10 (10: 100%) | 8 (8: 80% to less than 90%) | 9 (9: 90% to less than 100%) | 8 (8: 80% to less than 90%) | 8 (8: 80% to less than 90%) | 10 (10: 100%) | 10 (10: 100%) | 10 (10: 100%) | 10 (10: 100%) | 10 (10: 100%) | 10 (10: 100%) | 0 (0 (exponent): 0% to less than 10% (growth inhibition rate)) | phytotoxicity (growth inhibition rate level) Rice plants (Rice plants; 5g a.i./10a): 1 (1: 10% to less than 20%)
132 to 133 | N#Cc1cnn(-c2nn3c(c2Cl)CCCC3)c1NC(C1CC1)C1CC1 [Compound 10, 1-(3-chloro-4,5,6,7-tetrahydropyrazolo[1,5-a]pyridin-2-yl)-5-(dicyclopropylmethylamino)pyrazole-4-carbonitrile] | 10 (10: 100%) | 10 (10: 100%) | 10 (10: 100%) | 10 (10: 100%) | 10 (10: 100%) | 10 (10: 100%) | 9 (9: 90% to less than 100%) | 9 (9: 90% to less than 100%) | 8 (8: 80% to less than 90%) | 9 (9: 90% to less than 100%) | 8 (8: 80% to less than 90%) | 9 (9: 90% to less than 100%) | 10 (10: 100%) | 10 (10: 100%) | 10 (10: 100%) | 10 (10: 100%) | 10 (10: 100%) | 10 (10: 100%) | 0 (0 (exponent): 0% to less than 10% (growth inhibition rate)) | phytotoxicity (growth inhibition rate level) Rice plants (Rice plants; 5g a.i./10a): 1 (1: 10% to less than 20%)
